Measurements from patent US5571518A, “Cosmetic compositions containing tricholine citrate” (priority 1995, dated 1996).
Read-outs that look alike come from different tables or passages of the source.

Columns and labels:
Transglutaminase (TG-1) = assay: Transglutaminase I levels in keratinocytes (ELISA based TG-1 assay); assay type: cell-based, human; details: 48 hour treatment
Description: (§1) Human keratinocytes, isolated from neonatal foreskin by trypsin treatment were grown in Dulbecco Modification Eagle (DME) Hams F12 (3:1) medium/5% fetal calf serum in the presence of mitomycin C treated 3T3 mouse fibroblasts for establishing dividing keratinocyte colonies. Cells were grown under the above condition until their second passage and kept frozen for future use. Frozen second passage keratinocytes were thawed and plated into the above medium and grown for five days. On day 5, when the cells were 70-80% confluent, they were trypsinized and plated in the serum-free medium for the various experiments.
(§2) During the process of terminal differentiation in the epidermis, a 15 nm thick layer of protein, known as the cornified envelope (CE)is formed on the inner surface of the cell periphery. The CE is composed of numerous distinct proteins which have been cross-linked together by the formation of N ^ε -(-γ-glutamyl) lysine isodipeptide bonds catalyzed by the action of at least two different transglutaminases expressed in the epidermis. Transglutaminase (TG-1) is expressed in abundance in the differentiated layers of the epidermis, especially the granular layer, but is absent in the undifferentiated basal epidermis. Thus, TG-1 is a useful marker of epidermal keratinocyte differentiation with high TG-1 levels indicating a more differentiated state. An ELISA based TG-1 assay, using a TG-1 antibody, was used to assess the state of differentiation of the cultured keratinocytes in the examples that follow.
The level of TG-1 was measured as follows. […] The DNA content of the cells in the wells were first determined before the TG-1 assay.
TG-1 levels of the cells in the wells were determined using the TG-1 specific monoclonal antibody (BC1) (first antibody) (obtained from Amersham Life Sciences) and using a peroxidase labelled rabbit antimouse IgG fragment (second antibody). The plates were blocked by 5% nonfat milk in TBS (Tris buffered saline, pH 8.0) for one hour followed by overnight incubation with the first antibody (1:2,000 fold dilution) in 1% milk/TBS at 4° C. After rinsing the plates three times with 1% milk/TBS containing 0.05% Tween 20, the plates were incubated with 1:4000 dilution of the second antibody at room temperature for two hours. The plates were rinsed three times with 1% milk/TBS/Tween and three times with TBS. Color was developed by incubation with o-phenylene diamine and hydrogen peroxide. The optical density was read at 410 nm in a microtiter plate reader and the TG-1 levels were calculated as OD/DNA fluorescence. The mean ±Standard Deviation of at least six separate wells were used for calculation and statistical analysis of the data. Results are expressed as % of control.
Cornified envelope formation is determined by the activity of transglutaminase enzyme which cross-links all the envelope precursor proteins to form the envelope. This enzyme is calcium dependent and is inhibited by calcium chelators such as citric acid and citric acid esters.

human keratinocytes [1] = assay: Cornified envelope (CE) formation, marker of terminal differentiation of keratinocytes; assay type: cell-based; details: Homo sapiens, Keratinocyte, read-out: CE Levels
Description: as §1, §2
Proper skin conditioning require enhanced proliferation and differentiation of epidermal keratinocytes. The different citrate esters were tested on their effect on cornified envelope (CE) formation, a marker of terminal differentiation of keratinocytes. Citrate esters were tested at 1 mM levels in medium containing 0.15 mM Ca. Levels are expressed as % of control ±SD. The CE formation for the control was 54.48 ±31.8 cpm/μg cell protein.

human keratinocytes [2] = assay: DNA synthesis in keratinocytes (3H-thymidine incorporation, keratinocyte proliferation); assay type: cell-based; details: Homo sapiens, Keratinocyte; for activity at 0.1 µM / activity at 1 µM / activity at 10 µM / activity at 100 µM / activity at 1000 µM / activity at 10000 µM: read-out: Rate of DNA synthesis; for minimal effective concentration: read-out: concentration at which inhibitory to DNA synthesis
Text: The incorporation of ^3 H-thymidine by cultured keratinocytes was used as an assay of keratinocyte proliferation. Thymidine is one of four deoxynucleosides which are the monomeric units of DNA, the universal library of genetic information in the animal kingdom. Prior to cell division of a somatic cell such as a keratinocyte, the complete genome of the cell undergoing cell division is replicated. This involves large scale DNA synthesis by the cell and enables both daughter cells to receive identical copies of the genetic material. When ^3 H-thymidine is included in the culture media of keratinocytes which are synthesizing DNA in preparation for cell division then the labelled nucleoside is incorporated into the newly synthesized DNA. The extent of incorporation of ^3 H-thymidine into a population of cells is proportional to the rate of DNA synthesis by this population of cells and therefore an indication of their cellular proliferation.
1. Normal human keratinocytes isolated from neonatal foreskins by trypsin treatment were grown in DME medium/5% fetal calf serum in the presence of mitomycin C treated 3T3 mouse fibroblasts for establishing dividing keratinocyte colonies. Keratinocytes were grown under the above condition until their third passage.
2. For the experiments, third passage keratinocytes were plated into a serum-free keratinocyte growth medium (KGM; obtained from Clonetics, San Diego, Calif.) containing 0.09 mM calcium. 20,000 to 30,000 cells were plated into each well of 24 well cell culture plates and grown for 5 days, until the cells reach about 80% confluence.
3. Medium was changed to fresh medium and the various test materials were added to the medium from an ethanolic stock solution. The final ethanol concentration in the cultures was kept below 0.2%. Control cultures received no tested material but were dosed with 0.2% ethanol. Each compound or combination was tested in three separate wells. In four hours, 1 uCi of ^3 H-thymidine (Amersham Corp., Sp activity 40 Ci/mmol) was added to the 1 ml medium in each well. The cells were incubated overnight and 24 hours later the amount of ^3 H-thymidine associated with the cellular DNA of keratinocytes was assessed as described below.
4. The medium was aspirated, and the wells washed with 1 ml phosphate-buffered saline. The DNA and proteins of the cells in the plate were then precipitated by adding 1 ml of ice-cold 10% trichloroacetic acid (TCA). The plates were left on ice for 30 minutes to complete the precipitation process. TCA was then aspirated and each well was then washed four times with 5% TCA. The plates were then dried on a filter pad and the cells in the wells were dissolved in 0.5 ml of 0.1N sodium hydroxide. The sodium hydroxide was then neutralized using 0.1N hydrochloric acid and the solution (1 ml total volume) was then transferred to a scintillation vial. 50 μl samples from each vial were used for protein assay using BCA protein assay reagent obtained from Pierce Chemical Company. 8 ml of a scintillation fluid (Ecolume) was added to the rest of the solution in the vial, and the vials were counted in a scintillation counter to determine the amount of radioactivity in each vial. The DNA synthesis rate was then calculated as cpm ^3 H thymidine incorporated into total cellular DNA/microgram of cell protein for each individual well.

[3] = 10 μM, * statistically significant
[4] = 100 μM, * statistically significant
[5] = 1 mM, medium containing 0.15 mM Ca, ±SD, * statistically significant effects
[6] = 100 μM, 24 hours exposure, ±SD, * statistically significant compared to controls
[7] = 1000 μM, 24 hours exposure, ±SD, * statistically significant compared to controls
[8] = 10,000 μM, 24 hours exposure, ±SD, * statistically significant compared to controls

Compound | transglutaminase I levels (Transglutaminase (TG-1); 1 μM) | transglutaminase I levels (Transglutaminase (TG-1); [3]) | transglutaminase I levels (Transglutaminase (TG-1); [4]) | activity at 1000 µM (human keratinocytes [1]) [%] | activity at 0.1 µM (human keratinocytes [2]; 24 h) [%] | activity at 1 µM (human keratinocytes [2]; 24 h) [%] | activity at 10 µM (human keratinocytes [2]; 24 h) [%] | activity at 100 µM (human keratinocytes [2]; 24 h) [%] | activity at 1000 µM (human keratinocytes [2]; 24 h) [%] | activity at 10000 µM (human keratinocytes [2]; 24 h) [%] | activity at 1000 µM (human keratinocytes [1]; [5]) [%] | activity at 0.1 µM (human keratinocytes [2]; 0.1 μM, 24 hours exposure, ±SD) [%] | activity at 1 µM (human keratinocytes [2]; 1.0 μM, 24 hours exposure, ±SD) [%] | activity at 10 µM (human keratinocytes [2]; 10 μM, 24 hours exposure, ±SD) [%] | activity at 100 µM (human keratinocytes [2]; [6]) [%] | activity at 1000 µM (human keratinocytes [2]; [7]) [%] | activity at 10000 µM (human keratinocytes [2]; [8]) [%] | minimal effective concentration (human keratinocytes [2]; 24 hours exposure) [µM]
C[N+](C)(C)CCO [Choline, choline] | 121.8 ± 18 % of control | 124.2 ± 8.7 % of control | 120.4 ± 11.3 % of control | 135 ± 23.6 | 125 ± 17.6 | 113 ± 12 | 109 ± 3.3 | 114 ± 12 | 115 ± 24 | 127 ± 10.7 |  |  |  |  |  |  |  | 
CCCCOC(=O)CC(O)(CC(=O)OCCCC)C(=O)OCCCC [TBC, tributylcitrate] | 100 ± 13 % of control | 79 ± 13 % of control | 79 ± 13 % of control |  |  |  |  |  |  |  | 23.6 ± 2.1 | 106 ± 8.4 | 100 ± 28 | 68.2 ± 13 | 8.7 ± 5.5 | 1.35 ± 0.1 | 0.505 | > 10
CCOC(=O)CC(O)(CC(=O)OCC)C(=O)OCC [TEC, triethylcitrate] | 77.3 ± 10.7 % of control | 76.7 ± 20.8 % of control | 67.2 ± 11.9 % of control |  |  |  |  |  |  |  | 18.6 ± 4.2 | 112 ± 21.5 | 112 ± 13.1 | 79.1 ± 13.9 | 9.8 ± 2.3 | 11.2 ± 9.2 | 1.2 ± 0.02 | > 10
